This series is described as follows: Half-life data for 2-chloro-2-alkyl substituted peroxyesters (0.2M in Benzene). Conditions: for Half-Life: 200000 µM. Format: physicochemical. The text has this: The following Table III illustrates the desirable half lifes obtainable with compositions of this invention:
HALF-LIFE DATA FOR SELECTED 2-CHLORO-2-ALKYL
SUBSTITUTED PEROXYESTERS (0.2M in Benzene)

As for `CCCCC(Cl)(CC)C(=O)OOC(C)(C)C` (stereo not drawn) [TBPCEH, t-Butyl peroxy 2-chloro-2-ethyl hexanoate], the “10 Hr Half-Life Temp” value was 56.2 °C. Besides, under “55 °C.”, the Half-Life came out at 11.55 h. In addition, the Half-Life (65 °C.) turned out to be 3.72 h. Also, under “75 °C.”, the Half-Life is 1.16 h. Also, where the note is “80 °C.”, the Half-Life is 0.68 h.
Take `CCC(Cl)(CC)C(=O)OOC(C)(C)CC(C)(C)C` [TMBPCEB, 1,1,3,3 Tetramethylbutylperoxy-2-chloro-2-ethylbutyrate]: the Half-Life runs as follows: (47.5 °C.) 23.22 h; (50 °C.) 16.84 h; (55 °C.) 9.00 h; (65 °C.) 2.38 h.

(Values after patent US4278612A, “2-Chloro-2-alkyl substituted peroxyesters” (priority 1979, dated 1981).)
